molecular target: human PDE10A2 (Homo sapiens (Human), UniProt Q9Y233); experiment: PDE10 fluorescence polarization (IMAP FP) inhibition assay; assay type: biochemical; conditions: human PDE10A2 lysate, FAM-labeled cAMP 50 nM, room temperature; read-out: PDE10A Ki
Method: The activity of the compounds in accordance with the present invention as PDE10 inhibitors may be readily determined without undue experimentation using a fluorescence polarization (FP) methodology that is well known in the art (Huang, W., et al., J. Biomol Screen, 2002, 7: 215). […] In a typical experiment the PDE10 inhibitory activity of the compounds of the present invention was determined in accordance with the following experimental method. PDE10A2 was amplified from human fetal brain cDNA (Clontech, Mountain View, Calif.) using a forward primer corresponding to nucleotides 56-77 of human PDE10A2 (Accession No. AF127480, Genbank Identifier 4894716), containing a Kozak consensus sequence, and a reverse primer corresponding to nucleotides 2406-2413 of human PDE10A2 (Accession No. AF127480, Genbank Identifier 4894716). Amplification with Easy-A polymerase (Stratagene, La Jolla, Calif.) was 95° C. for 2 minutes followed by thirty three cycles of 95° C. for 40 seconds, 55° C. for 30 seconds, and 72° C. for 2 minutes 48 seconds. Final extension was 72° C. for 7 minutes. The PCR product was TA cloned into pcDNA3.2-TOPO (Invitrogen, Carlsbad, Calif.) according to standard protocol. AD293 cells with 70-80% confluency were transiently transfected with human PDE10A2/pcDNA3.2-TOPO using Lipofectamine 2000 according to manufacturer specifications (Invitrogen, Carlsbad, Calif.). Cells were harvested 48 hours post-transfection and lysed by sonication (setting 3, 10×5 sec pulses) in a buffer containing 20 mM HEPES, 1 mM EDTA and protease inhibitor cocktail (Roche). Lysate was collected by centrifugation at 75,000×g for 20 minutes. Supernatant containing the cytoplasmic fraction was used for evaluation of PDE10A2 activity. The fluorescence polarization assay for cyclic nucleotide phosphodiesterases was performed using an IMAP® FP kit supplied by Molecular Devices, Sunnyvale, Calif. (product #R8139). IMAP® technology has been applied previously to phosphodiesterase assays (Huang, W., et al., J. Biomol Screen, 2002, 7: 215). Assays were performed at room temperature in 384-well microtiter plates with an incubation volume of 20.2 μL. Solutions of test compounds were prepared in DMSO and serially diluted with DMSO to yield 8 μL of each of 10 solutions differing by 3-fold in concentration, at 32 serial dilutions per plate. 100% inhibition is determined using a known PDE10 inhibitor, which can be any compound that is present at 5,000 times its Ki value in the assay described as follows, such as papaverine (see Siuciak, et al. Neuropharmacology (2006) 51:386-396; Becker, et al. Behav Brain Res (2008) 186(2):155-60; Threlfell, et al., J Pharmacol Exp Ther (2009) 328(3):785-795), 2-{4-[pyridin-4-yl-1-(2,2,2-trifluoroethyl)-1H-pyrazol-3-yl]phenoxymethyl}quinoline succinic acid or 2-[4-(1-methyl-4-pyridin-4-yl-1H-pyrazol-3-yl)-phenoxymethyl]quinoline succinic acid (see Schmidt, et al. J Pharmacol Exp Ther (2008) 325:681-690; Threlfell, et al., J Pharmacol Exp Ther (2009) 328(3): 785-795). 0% of inhibition is determined by using DMSO (1% final concentrations).
A Labcyte Echo 555 (Labcyte, Sunnyvale, Calif.) is used to dispense 200 nL from each well of the titration plate to the 384 well assay plate. A solution of enzyme (1/1600 dilution from aliquots; sufficient to produce 20% substrate conversion) and a separate solution of FAM-labeled cAMP PDE from Molecular Devices (product #R7506), at a final concentration of 50 nM are made in the assay buffer (10 mM Tris HCl, pH 7.2, 10 mM MgCl2, 0.05% NaN3 0.01% Tween-20, and 1 mM DTT). The enzyme and the substrate are then added to the assay plates in two consecutive additions of 10 μL, and then shaken to mix. The reaction is allowed to proceed at room temperature for 30 minutes. A binding solution is then made from the kit components, comprised of 80% Solution A, 20% Solution B and binding reagent at a volume of 1/600 the total binding solution.

Chain of human PDE10A2 (Q9Y233 267-1055): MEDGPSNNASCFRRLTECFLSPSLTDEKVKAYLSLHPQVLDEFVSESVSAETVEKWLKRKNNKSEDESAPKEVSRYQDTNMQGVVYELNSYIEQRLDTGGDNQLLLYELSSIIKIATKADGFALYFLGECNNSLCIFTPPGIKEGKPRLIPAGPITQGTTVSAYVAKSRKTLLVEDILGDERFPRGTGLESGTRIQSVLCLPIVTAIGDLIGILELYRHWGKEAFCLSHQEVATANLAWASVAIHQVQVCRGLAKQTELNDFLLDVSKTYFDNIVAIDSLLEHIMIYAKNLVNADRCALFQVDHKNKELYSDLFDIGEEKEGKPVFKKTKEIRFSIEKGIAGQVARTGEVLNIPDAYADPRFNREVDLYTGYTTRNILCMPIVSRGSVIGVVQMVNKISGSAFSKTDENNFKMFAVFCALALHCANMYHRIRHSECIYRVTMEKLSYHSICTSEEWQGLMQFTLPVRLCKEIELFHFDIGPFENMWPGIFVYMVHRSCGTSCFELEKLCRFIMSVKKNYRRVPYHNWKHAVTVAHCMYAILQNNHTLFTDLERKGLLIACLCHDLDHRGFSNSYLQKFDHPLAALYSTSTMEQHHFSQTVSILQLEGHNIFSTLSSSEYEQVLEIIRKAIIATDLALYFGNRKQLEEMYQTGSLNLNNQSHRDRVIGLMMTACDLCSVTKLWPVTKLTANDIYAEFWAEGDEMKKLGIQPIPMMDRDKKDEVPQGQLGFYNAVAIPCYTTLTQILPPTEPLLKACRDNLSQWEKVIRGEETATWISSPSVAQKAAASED

Compound	Ki [nM]
Cn1cc(CNc2cc(OC[C@H]3C[C@@H]3c3ccn(C)n3)nn(C)c2=O)cn1 [Example 23, 2-methyl-6-(((1S,2S)-2-(1-methyl-1H-pyrazol-3-yl)cyclopropyl)methoxy)-4-((1-methyl-1H-pyrazol-4-yl)methylamino)-pyridazin-3(2H)-one]	0.478
COc1ccc(CNc2cc(OC[C@H]3C[C@@H]3c3ccc(C)cn3)nn(C)c2=O)cc1 [Example 8, 4-(4-methoxybenzylamino)-2-methyl-6-(((1S,2S)-2-(5-methylpyridin-2-yl)cyclopropyl)methoxy)-pyridazin-3(2H)-one]	0.074
COc1ccc([C@H]2C[C@@H]2COc2cc(NCc3cccnc3C)c(=O)n(C)n2)nc1 [Example 65, 6-(((1S,2S)-2-(5-methoxy-pyridin-2-yl)cyclopropyl-)-methoxy)-2-methyl-4-(((2-methylpyridin-3-yl)-methyl)amino)pyridazin-3(2H)-one]	0.053
Cc1ccc([C@H]2C[C@@H]2COc2cc(NCc3nc(C)cs3)c(=O)n(C)n2)nc1 [Example 12, 2-methyl-6-(((1S,2S)-2-(5-methylpyridin-2-yl)cyclo-propyl)methoxy)-4-((4-methylthiazol-2-yl)methyl-amino)pyridazin-3(2H)one]	9.89
COc1ccc([C@H]2C[C@@H]2COc2cc(NCc3cncc(C)c3)c(=O)n(C)n2)nc1 [Example 67, 6-(((1S,2S)-2-(5-methoxypyridin-2-yl)cyclopropyl)methoxy)-2-methyl-4-(((5-methylpyridin-3-yl)methyl)amino)pyridazin-3(2H)-one]	0.049
Cc1ccc([C@H]2C[C@@H]2COc2cc(NCc3nnc(C)s3)c(=O)n(C)n2)nc1 [Example 1, 2-methyl-4-((5-methyl-1,3,4-thiadiazol-2-yl)methylamino)-6-(((1S,2S)-2-(5-methylpyridin-2-yl)cyclopropyl)methoxy)pyridazin-3(2H)-one]	0.013
COc1ccc([C@H]2C[C@@H]2COc2cc(NCc3ccc(Cl)c(C)n3)c(=O)n(C)n2)nc1 [Example 75, 4-(((5-chloro-6-methyl-pyridin-2-yl)methyl)-amino)-6-(((1S,2S)-2-(5-methoxypyridin-2-yl)cyclopropyl)methoxy)2-methylpyridazin-3(2H)one]	1.3
COc1ccc(CNc2cc(OC[C@H]3C[C@@H]3c3ccc(F)cn3)nn(C)c2=O)cc1 [Example 15, 6-(((1S,2S)-2-(5-fluoro-pyridin-2-yl)-cyclopropyl-)-methoxy)-4-(4-methoxy-benzylamino)-2-methyl-pyridazin-3(2H)-one]	1.29
Cc1ccc(CNc2cc(OC[C@H]3C[C@@H]3c3ccc(C)cn3)nn(C)c2=O)nc1 [Example 9, 2-methyl-6-(((1S,2S)-2-(5-methylpyridin-2-yl)cyclopropyl)methoxy)-4-((5-methylpyridin-2-yl)methylamino)pyridazin-3(2H)-one]	0.051
Cc1ccc([C@H]2C[C@@H]2COc2cc(NCc3c(Cl)c(C)nn3C)c(=O)n(C)n2)nc1 [Example 35, 4-((4-chloro-1,3-dimethyl-1H-pyrazol-5-yl)methylamino)-2-methyl-6-(((1S,2S)-2-(5-methylpyridin-2-yl)cyclopropyl)methoxy)-pyridazin-3(2H)-one]	0.476
6-(((1S,2S)-2-(5- methoxypyridin-2- yl)cyclopropyl)methoxy)- 2-methyl-4-(((2-methyl- thiazol-4- yl)methyl)amino-)- pyridazin-3(2H)-one [Example 49]	16.6
Cc1noc(C)c1CNc1cc(OC[C@H]2C[C@@H]2c2ccn(C)n2)nn(C)c1=O [Example 61, 4-(((3,5-dimethylisoxazol-4-yl)methyl)amino)-2-methyl-6-(((1S,2S)-2-(1-methyl-1H-pyrazol-3-yl)cyclopropyl)methoxy)-pyridazin-3(2H)-one]	4.1
COc1ccc([C@H]2C[C@@H]2COc2cc(NCc3ncccc3C)c(=O)n(C)n2)nc1 [Example 73, 6-(((1S,2S)-2-(5-methoxypyridin-2-yl)cyclopropyl)methoxy)-2-methyl-4-(((3-methyl-pyridin-2-yl)methyl)-amino)pyridazin-3(2H)one]	32.3
Cn1ccc([C@H]2C[C@@H]2COc2cc(NCc3nccs3)c(=O)n(C)n2)n1 [Example 47, 2-methyl-6-(((1S,2S)-2-(1-methyl-1H-pyrazol-3-yl)cyclopropyl)methoxy)-4-((thiazol-2-ylmethyl)amino)pyridazin-3(2H)-one]	8.21

Now from value to compound:

Ki [nM]	Compound
0.032	CCn1nc(OC[C@H]2C[C@@H]2c2ccc(OC)cn2)cc(NCc2nnc(C)s2)c1=O [Example 144, 2-ethyl-6-(((1S,2S)-2-(5-methoxypyridin-2-yl)cyclopropyl)methoxy)-4-((5-methyl-1,3,4-thiadiazol-2-yl)methylamino)pyridazin-3(2H)-one]
75	COc1ccc([C@H]2C[C@@H]2COc2cc(NC(=O)c3cnn(C)c3Cl)c(=O)n(C)n2)nc1 [Example 95, 5-chloro-N-(6-(((1S,2S)-2-(5-methoxypyridin-2-yl)-cyclopropyl)methoxy)-2-methyl-3-oxo-2,3-dihydro-pyridazin-4-yl)-1-methyl-1Hpyrazole-4carboxamide]
0.002	Cc1cnc(CNc2cc(OC[C@H]3C[C@@H]3c3ccc4c(n3)CCC4)nn(C)c2=O)s1 [Example 124, 6-(((1S,2S)-2-(6,7-dihydro-5H-cyclopenta-[b]pyridin-2-yl)cyclopropyl)methoxy)-2-methy-4-((5-methylthiazol-2-yl)-methylamino-)pyridazin-3(2H)-one]
0.077	Cc1ncc(CNc2cc(OC[C@@H]3C[C@H]3c3nn(C)c4ccccc34)nn(C)c2=O)s1 [Example 110, 2-methyl-6-(((1R,2R)-2-(1-methyl-1H-indazol-3-yl)cyclopropyl)methoxy)-4-((2-methylthiazol-5-yl)methylamino)pyridazin-3(2H)-one]
0.008	COc1ccc([C@H]2C[C@@H]2COc2cc(NCc3cc(C)no3)c(=O)n(C)n2)nc1 [Example 89, 6-(((1S,2S)-2-(5-methoxypyridin-2-yl)cyclopropyl)methoxy)-2-methyl-4-(((3-methylisoxazol-5-yl)methyl)amino)pyridazin-3(2H)-one]
0.002	COc1ccc([C@H]2C[C@@H]2COc2cc(NCc3cc(C)nn3C)c(=O)n(C)n2)nc1 [Example 132, 4-((1,3-dimethyl-1H-pyrazol-5-yl)methyl-amino)-6-(((1S,2S)-2-(5-methoxypyridin-2-yl)-cyclopropyl)methoxy)-2-methylpyridazin-3(2H)one]
1.4	Cc1cnc(CNc2cc(OC[C@H]3C[C@@H]3c3nn(C)c4ccccc34)nn(C)c2=O)s1 [Example 112, 2-methyl-6-(((1S,2S)-2-(1-methyl-1H-indazol-3-yl)cyclopropyl)methoxy)-4-((5-methylthiazol-2-yl)methylamino)pyridazin-3(2H)-one]
3.4	Cc1cccc([C@H]2C[C@@H]2COc2cc(NCc3ccccn3)c(=O)n(C)n2)n1 [Example 119, 2-methyl-6-(((1S,2S)-2-(6-methylpyridin-2-yl)cyclo-propyl)methoxy)-4-(pyridin-2-ylmethylamino-)pyridazin-3(2H)-one]
0.005	Cc1cccc([C@H]2C[C@@H]2COc2cc(NCc3cc(C)nn3C)c(=O)n(C)n2)n1 [Example 116, 4-((1,3-dimethyl-1H-pyrazol-5-yl)methylamino)-2-methyl-6-(((1S,2S)-2-(6-methylpyridin-2-yl)cyclopropyl)methoxy) pyridazin-3(2H)-one]
